Measured values from ChEMBL document CHEMBL1777766, “Design, synthesis and in vitro antibacterial activity of 7-(4-alkoxyimino-3-aminomethylpiperidin-1-yl)fluoroquinolone derivatives” (Bioorg Med Chem Lett, 2011).
In brackets after ≈: the same amount, converted by molar mass.

Experiments:
Enterobacter cloacae = assay: Antibacterial activity against Enterobacter cloacae 45301; assay type: functional
Staphylococcus aureus [1] = assay: Antibacterial activity against methicillin-sensitive Staphylococcus aureus 08-49; assay type: functional
[2] = system: Staphylococcus epidermidis; assay: Antibacterial activity against methicillin-resistant Staphylococcus epidermidis 08-18; assay type: functional
Staphylococcus aureus [3] = assay: Antibacterial activity against methicillin-resistant Staphylococcus aureus 08-52; assay type: functional
Staphylococcus aureus [4] = assay: Antibacterial activity against Staphylococcus aureus ATCC 13709; assay type: functional
Klebsiella aerogenes = assay: Antibacterial activity against Enterobacter aerogenes 45102; assay type: functional
[5] = system: Staphylococcus epidermidis; assay: Antibacterial activity against Staphylococcus epidermidis ATCC 12228; assay type: functional
[6] = system: Staphylococcus epidermidis; assay: Antibacterial activity against methicillin-sensitive Staphylococcus epidermidis 08-17; assay type: functional
Enterococcus faecalis [7] = assay: Antibacterial activity against vancomycin-resistant Enterococcus faecalis EFL1004; assay type: functional
Escherichia coli [8] = assay: Antibacterial activity against Escherichia coli ATCC 25922; assay type: functional
Streptococcus pyogenes = assay: Antibacterial activity against Streptococcus pyogenes 556; assay type: functional
Morganella morganii = assay: Antibacterial activity against Morganella morganii 49086; assay type: functional
Klebsiella pneumoniae = assay: Antibacterial activity against Klebsiella pneumoniae ATCC 700603; assay type: functional
[9] = system: Acinetobacter calcoaceticus; assay: Antibacterial activity against Acinetobacter calcoaceticus 25001; assay type: functional
Shigella sonnei = assay: Antibacterial activity against Shigella sonnei 51592; assay type: functional
Escherichia coli [10] = assay: Antibacterial activity against Extended spectrum beta-lactamase producing Escherichia coli 08-5; assay type: functional
Salmonella typhi = assay: Antibacterial activity against Bacillus typhi 50035; assay type: functional, Salmonella enterica subsp. enterica serovar Typhi; details: Salmonella enterica
Streptococcus pneumoniae [11] = assay: Antibacterial activity against Streptococcus pneumoniae ATCC 6301; assay type: functional
Serratia marcescens = assay: Antibacterial activity against Serratia marcescens 41002; assay type: functional
Proteus vulgaris = assay: Antibacterial activity against Proteus vulgaris 56; assay type: functional
Streptococcus pneumoniae [12] = assay: Antibacterial activity against penicillin-resistant Streptococcus pneumoniae 08-2; assay type: functional
Providencia rettgeri = assay: Antibacterial activity against Proteus rettgeri 49006; assay type: functional
Enterococcus faecalis [13] = assay: Antibacterial activity against Enterococcus faecalis ATCC 51299; assay type: functional
Pseudomonas aeruginosa = assay: Antibacterial activity against Pseudomonas aeruginosa 17; assay type: functional
[14] = Cytotoxicity against african green monkey Vero cells after 24 hrs; assay type: cell-based; details: chlorocebus sabaeus

SMILES | MIC (Enterobacter cloacae) [µg/mL] | MIC (Staphylococcus aureus [1]) [µg/mL] | MIC [2] [µg/mL] | MIC (Staphylococcus aureus [3]) [µg/mL] | MIC (Klebsiella aerogenes) [µg/mL] | MIC [5] [µg/mL] | MIC [6] [µg/mL] | MIC (Enterococcus faecalis [7]) [µg/mL] | MIC (Escherichia coli [8]) [µg/mL] | MIC (Streptococcus pyogenes) [µg/mL] | MIC (Morganella morganii) [µg/mL] | MIC [9] [µg/mL] | MIC (Shigella sonnei) [µg/mL] | MIC (Escherichia coli [10]) [µg/mL] | MIC (Salmonella typhi) [µg/mL] | MIC (Serratia marcescens) [µg/mL] | MIC (Proteus vulgaris) [µg/mL] | MIC (Providencia rettgeri) [µg/mL] | MIC (Enterococcus faecalis [13]) [µg/mL] | MIC (Pseudomonas aeruginosa) [µg/mL] | also measured
CO/N=C1\CCN(c2c(F)cc3c(=O)c(C(=O)O)cn(C4CC4)c3c2F)CC1CN (racemic) | 32 (≈ 76.1 µM) | 0.5 (≈ 1.19 µM) | 4 (≈ 9.51 µM) | 0.5 (≈ 1.19 µM) | 1 (≈ 2.38 µM) | 1 (≈ 2.38 µM) | 1 (≈ 2.38 µM) | 4 (≈ 9.51 µM) | 1 (≈ 2.38 µM) | 16 (≈ 38.1 µM) | 1 (≈ 2.38 µM) | 2 (≈ 4.76 µM) | 1 (≈ 2.38 µM) | > 128 | 1 (≈ 2.38 µM) | 4 (≈ 9.51 µM) | 4 (≈ 9.51 µM) | 8 (≈ 19 µM) | 4 (≈ 9.51 µM) | 8 (≈ 19 µM) | MIC (Staphylococcus aureus [4]): 0.5 µg/mL (≈ 1.19 µM); MIC (Klebsiella pneumoniae): 16 µg/mL (≈ 38.1 µM); MIC (Streptococcus pneumoniae [11]): 8 µg/mL (≈ 19 µM); MIC (Streptococcus pneumoniae [12]): 8 µg/mL (≈ 19 µM)
CCO/N=C1\CCN(c2c(F)cc3c(=O)c(C(=O)O)cn(C4CC4)c3c2F)CC1CN (racemic) | > 128 | 0.25 (≈ 0.575 µM) | 0.25 (≈ 0.575 µM) | 1 (≈ 2.3 µM) | 2 (≈ 4.6 µM) | 0.25 (≈ 0.575 µM) | 2 (≈ 4.6 µM) | 2 (≈ 4.6 µM) | 1 (≈ 2.3 µM) | 32 (≈ 73.7 µM) | 4 (≈ 9.21 µM) | 2 (≈ 4.6 µM) | 0.5 (≈ 1.15 µM) | > 128 | 0.5 (≈ 1.15 µM) | 4 (≈ 9.21 µM) | 4 (≈ 9.21 µM) | 8 (≈ 18.4 µM) | 2 (≈ 4.6 µM) | 16 (≈ 36.8 µM) | MIC (Staphylococcus aureus [4]): 0.5 µg/mL (≈ 1.15 µM); MIC (Klebsiella pneumoniae): 32 µg/mL (≈ 73.7 µM); CC50 at 24 h [14]: 257 µg/mL (≈ 591 µM); MIC (Streptococcus pneumoniae [11]): 8 µg/mL (≈ 18.4 µM); MIC (Streptococcus pneumoniae [12]): 4 µg/mL (≈ 9.21 µM)
CO/N=C1\CCN(c2c(F)cc3c(=O)c(C(=O)O)cn(C4CC4)c3c2OC(F)F)CC1CN (racemic) | 2 (≈ 4.27 µM) | 0.125 (≈ 0.267 µM) | 0.5 (≈ 1.07 µM) | 1 (≈ 2.13 µM) | 2 (≈ 4.27 µM) | 0.5 (≈ 1.07 µM) | 1 (≈ 2.13 µM) | 4 (≈ 8.54 µM) | 1 (≈ 2.13 µM) | 4 (≈ 8.54 µM) | 4 (≈ 8.54 µM) | 2 (≈ 4.27 µM) | 16 (≈ 34.2 µM) | > 128 | 0.5 (≈ 1.07 µM) | 8 (≈ 17.1 µM) | 4 (≈ 8.54 µM) | 4 (≈ 8.54 µM) | 1 (≈ 2.13 µM) | 8 (≈ 17.1 µM) | MIC (Staphylococcus aureus [4]): 0.25 µg/mL (≈ 0.534 µM); MIC (Klebsiella pneumoniae): 32 µg/mL (≈ 68.3 µM); CC50 at 24 h [14]: 335 µg/mL (≈ 715 µM); MIC (Streptococcus pneumoniae [11]): 4 µg/mL (≈ 8.54 µM); MIC (Streptococcus pneumoniae [12]): 2 µg/mL (≈ 4.27 µM)
CCO/N=C1\CCN(c2c(F)cc3c(=O)c(C(=O)O)cn(C4CC4)c3c2OC(F)F)CC1CN (racemic) | 8 (≈ 16.6 µM) | 0.25 (≈ 0.518 µM) | 2 (≈ 4.15 µM) | 2 (≈ 4.15 µM) | 8 (≈ 16.6 µM) | 2 (≈ 4.15 µM) | 4 (≈ 8.29 µM) | 4 (≈ 8.29 µM) | 4 (≈ 8.29 µM) | 16 (≈ 33.2 µM) | 8 (≈ 16.6 µM) | 4 (≈ 8.29 µM) | 2 (≈ 4.15 µM) | > 128 | 2 (≈ 4.15 µM) | 32 (≈ 66.3 µM) | 8 (≈ 16.6 µM) | 16 (≈ 33.2 µM) | 2 (≈ 4.15 µM) | 16 (≈ 33.2 µM) | MIC (Staphylococcus aureus [4]): 1 µg/mL (≈ 2.07 µM); MIC (Klebsiella pneumoniae): 64 µg/mL (≈ 133 µM); CC50 at 24 h [14]: 203 µg/mL (≈ 421 µM); MIC (Streptococcus pneumoniae [11]): 8 µg/mL (≈ 16.6 µM); MIC (Streptococcus pneumoniae [12]): 4 µg/mL (≈ 8.29 µM)
CCn1cc(C(=O)O)c(=O)c2cc(F)c(N3CC/C(=N\OC)C(CN)C3)c(F)c21 (racemic) | > 128 | 4 (≈ 9.79 µM) | 4 (≈ 9.79 µM) | 8 (≈ 19.6 µM) | 8 (≈ 19.6 µM) | 8 (≈ 19.6 µM) | 16 (≈ 39.2 µM) | 32 (≈ 78.4 µM) | 4 (≈ 9.79 µM) | 64 (≈ 157 µM) | 4 (≈ 9.79 µM) | 16 (≈ 39.2 µM) | 4 (≈ 9.79 µM) | > 128 | 4 (≈ 9.79 µM) | 8 (≈ 19.6 µM) | 8 (≈ 19.6 µM) | 8 (≈ 19.6 µM) | 8 (≈ 19.6 µM) | 32 (≈ 78.4 µM) | MIC (Staphylococcus aureus [4]): 2 µg/mL (≈ 4.9 µM); MIC (Klebsiella pneumoniae): 128 µg/mL (≈ 313 µM); CC50 at 24 h [14]: > 500 µg/mL; MIC (Streptococcus pneumoniae [11]): 32 µg/mL (≈ 78.4 µM); MIC (Streptococcus pneumoniae [12]): 16 µg/mL (≈ 39.2 µM)
CCO/N=C1\CCN(c2c(F)cc3c(=O)c(C(=O)O)cn(CC)c3c2F)CC1CN (racemic) | > 128 | 4 (≈ 9.47 µM) | 8 (≈ 18.9 µM) | 8 (≈ 18.9 µM) | 16 (≈ 37.9 µM) | 8 (≈ 18.9 µM) | 32 (≈ 75.8 µM) | 32 (≈ 75.8 µM) | 8 (≈ 18.9 µM) | 64 (≈ 152 µM) | 16 (≈ 37.9 µM) | 128 (≈ 303 µM) | 128 (≈ 303 µM) | > 128 | 8 (≈ 18.9 µM) | 16 (≈ 37.9 µM) | 16 (≈ 37.9 µM) | 32 (≈ 75.8 µM) | 16 (≈ 37.9 µM) | 128 (≈ 303 µM) | MIC (Staphylococcus aureus [4]): 4 µg/mL (≈ 9.47 µM); MIC (Klebsiella pneumoniae): > 128 µg/mL; CC50 at 24 h [14]: 410 µg/mL (≈ 969 µM); MIC (Streptococcus pneumoniae [11]): 64 µg/mL (≈ 152 µM); MIC (Streptococcus pneumoniae [12]): 32 µg/mL (≈ 75.8 µM)
CO/N=C1\CCN(c2c(F)cc3c(=O)c(C(=O)O)cn(CCF)c3c2F)CC1CN (racemic) | > 128 | 2 (≈ 4.69 µM) | 8 (≈ 18.8 µM) | 8 (≈ 18.8 µM) | 32 (≈ 75 µM) | 8 (≈ 18.8 µM) | 32 (≈ 75 µM) | 16 (≈ 37.5 µM) | 8 (≈ 18.8 µM) | 32 (≈ 75 µM) | 16 (≈ 37.5 µM) | 128 (≈ 300 µM) | 32 (≈ 75 µM) | > 128 | 8 (≈ 18.8 µM) | 16 (≈ 37.5 µM) | 16 (≈ 37.5 µM) | 16 (≈ 37.5 µM) | 8 (≈ 18.8 µM) | 32 (≈ 75 µM) | MIC (Staphylococcus aureus [4]): 4 µg/mL (≈ 9.38 µM); MIC (Klebsiella pneumoniae): 128 µg/mL (≈ 300 µM); MIC (Streptococcus pneumoniae [11]): 32 µg/mL (≈ 75 µM); MIC (Streptococcus pneumoniae [12]): 16 µg/mL (≈ 37.5 µM)
O=C(O)c1cn(C2CC2)c2cc(N3CCNCC3)c(F)cc2c1=O [CIPROFLOXACIN] | – | 0.25 (≈ 0.754 µM) | 0.25 (≈ 0.754 µM) | 4 (≈ 12.1 µM) | ≤ 0.03 | 0.25 (≈ 0.754 µM) | 2 (≈ 6.04 µM) | 1 (≈ 3.02 µM) | ≤ 0.03 | 1 (≈ 3.02 µM) | ≤ 0.03 | 1 (≈ 3.02 µM) | ≤ 0.03 | 128 (≈ 386 µM) | ≤ 0.03 | 0.25 (≈ 0.754 µM) | ≤ 0.03 | ≤ 0.03 | 0.5 (≈ 1.51 µM) | 16 (≈ 48.3 µM) | MIC (Klebsiella pneumoniae): 0.5 µg/mL (≈ 1.51 µM); MIC (Streptococcus pneumoniae [11]): 1 µg/mL (≈ 3.02 µM); MIC (Streptococcus pneumoniae [12]): 1 µg/mL (≈ 3.02 µM)
CO/N=C1\CN(c2nc3c(cc2F)c(=O)c(C(=O)O)cn3C2CC2)CC1CN (stereo not given) [GEMIFLOXACIN] | ≤ 0.03 | ≤ 0.03 | ≤ 0.03 | 0.5 (≈ 1.28 µM) | ≤ 0.03 | 0.06 (≈ 0.154 µM) | 0.06 (≈ 0.154 µM) | 0.5 (≈ 1.28 µM) | ≤ 0.03 | 0.125 (≈ 0.321 µM) | 0.06 (≈ 0.154 µM) | 0.125 (≈ 0.321 µM) | ≤ 0.03 | 32 (≈ 82.2 µM) | ≤ 0.03 | 0.125 (≈ 0.321 µM) | ≤ 0.03 | 0.06 (≈ 0.154 µM) | 0.06 (≈ 0.154 µM) | 32 (≈ 82.2 µM) | MIC (Staphylococcus aureus [4]): ≤ 0.03 µg/mL; MIC (Klebsiella pneumoniae): 0.5 µg/mL (≈ 1.28 µM); MIC (Streptococcus pneumoniae [11]): 0.5 µg/mL (≈ 1.28 µM); MIC (Streptococcus pneumoniae [12]): ≤ 0.03 µg/mL
C[C@H]1COc2c(N3CCN(C)CC3)c(F)cc3c(=O)c(C(=O)O)cn1c23.C[C@H]1COc2c(N3CCN(C)CC3)c(F)cc3c(=O)c(C(=O)O)cn1c23.O [LEVOFLOXACIN] | 0.06 | 0.06 | 0.125 | 1 | ≤ 0.03 | 0.125 | 1 | 2 | ≤ 0.03 | 1 | ≤ 0.03 | 0.25 | ≤ 0.03 | 32 | ≤ 0.03 | 0.25 | ≤ 0.03 | 0.25 | 0.25 | 8 | MIC (Staphylococcus aureus [4]): 0.06 µg/mL
